Results on five sequences are retold here after US9243227B2, “Cytotoxic T lymphocyte” (Mie University, priority 2004, dated 2016).

Experiment [1] relates to human bulk CTLs sensitized with mRNA-introduced autologous CD4+ PHA blast cells. Put plainly: IFN-γ ELISPOT assay (human) with peptide-pulsed T2A24 cells. Type of experiment: cell-based. The protocol:
On the 0th day, PHA (trade name: HA15, manufactured by Murex S.A.) was added to the medium in each well of the plate at a final concentration of 10 μg/milliliter. On the 3rd day, half amount of the medium was exchanged with the above medium containing IL-2 (20 U/milliliter) and IL-7 (40 ng/milliliter). Exchange of the medium was repeated every 3 days, whereby activated CD4-positive cells were obtained. The mRNA was introduced by electroporation into the activated CD4-positive cells at 14 to 28 days after culture was initiated. The resulting cells were used below as antigen-presenting cells.
MACS CD8 Microbeads (trade name, manufactured by Miltenyi Biotec) were used, to separate CD8+ T cells from PBMC. The number 5×10^5 cells of CD8+ T cells thus obtained were stimulated with radiation (30 Gy)-irradiated 1×10^5 mRNA-introduced CD4+ PHA blast cells in a 96-well round plate (manufactured by Nunc Corporation). After 7 days, the CD8+ T cells were stimulated again with radiation (30 Gy)-irradiated 1×10^5 mRNA-introduced CD4+ PHA blast cells, and then cultured in an IL-2 (20 IU/milliliter)-containing RPMI1640 medium for 7 days.
To amplify the sensitized CD8+ T cell group containing the antigen-specific CTLs, autologous LCLs (5×10^6 cells) into which the target antigen mRNA was introduced, autologous PBMCs (2.5×10^7 cells), and IL-2 (20 IU/milliliter) were added to the sensitized CD8+ T cell group. The resulting mixture was cultured in the absence of anti-CD3 antibody in a 25-milliliter flask (manufactured by Corning Incorporated).
A 96-well nitrocellulose ELISPOT plate (trade name: MAHA 54510, manufactured by Millipore Corporation) was coated by overnight incubation at 4° C. with 2 μg/milliliter antihuman IFN-γ mAb (trade name: 1-D1K). Each well was washed with PBS, and then blocked by incubation at 37° C. for 2 hours with RPMI1640 medium containing 10 wt % human AB serum. Effector cells (2×10^4 cells/well) and peptide-pulsed T2A24 cells (5×10^4 cells/well) were seeded to each well. […] Then, the plate was dried and spots were counted.

Experiment [2] has as its system CD8-positive cells derived from immunized HHDA2402+/−β2m−/− mice. The experiment can be described thus: IFN-gamma ELISPOT assay (mice), gene gun-immunized HLA-A2402 transgenic mice. Type of experiment: cell-based, mouse. The following applies: HHDA2402 mice immunized twice by gene gun with plasmid of the parent antigen; CD8-negative cells pulsed with peptide as target cells; FIG. 1A-1C. The method, then:
A DNA construct (HHDA2402) containing an HLA-A2402 leader sequence, human β2 microglobulin, HLA-A2402 α1 and α2 domains, an H-2D^b α3 transmembrane domain, and a cytoplasm domain was constructed. The resulting construct was cloned into an expression vector pcDNA 3.1 (manufactured by Invitrogen Corporation). The HHDA2402 construct (4 kb SalI-NotI fragment) was injected into fertilized eggs of C57BL/6 mice, to give HHDA2402-expressing mice. Then, the […] mice were bred with β2m−/− mice (manufactured by The Jackson Laboratory). The resulting HHDA2402+/−β2 m+/− were bred with β2m−/− mice to give HHDA2402+/−β2m−/− mice (referred to hereinafter as “HHDA2402 mice”).
Using Helios Gene Gun System (trade name, manufactured by Bio-Rad Laboratories, Inc.), gold particles coated with plasmid DNA were administered endoabdominally at a helium pressure of from 350 to 400 psi into HHDA2402 mice (6-to 8-week-old, female). The gold particles were prepared according to a manufacturer's manual. After 2 weeks, booster administration was carried out. After 1 week, spleen cells were collected.
One week after the final immunization, MACS system (trade name, manufactured by Mitlenyi Biotec) using CD8 alpha (Lyt 2) microbeads was used, to select CD8-positive T cells. The purity of the resulting T cell fraction analyzed by flow cytometry was 95% or more.
(§1) A 96-well nitrocellulose ELISPOT plate (trade name: MAHA 54510, manufactured by Millipore Corporation) was incubated overnight with 2 μg/milliliter anti-mouse IFN-gamma mAb (trade name: clone R4-6A2, manufactured by PharMingen Company) at 4° C., to coat the plate. Each well was washed with phosphate buffered physiologic saline (PBS). The well after washing was blocked by incubation at 37° C. for 2 hours in FCS-containing RPMI1640 medium.
Fresh CD8-positive cells (1×10^5 cells/well) derived from the immunized mice and CD8-negative cells (1×10^6 cells/well) pulsed with various peptides were seeded to each well and regulated so as to have a final volume of 200 μl. Then, the cells were cultured at 37° C. for 22 hours. Thereafter, the cells were washed sufficiently with PBS containing 0.05 wt % Tween™ 20 (referred to as “PBS-Tween”). Two hundreds microliters of 1.25 μg/milliliter biotinylated anti-mouse IFN-gamma mAb (trade name, manufactured by PharMingen Company) was added to the cells after washing, and the cells were then cultured overnight at 4° C. The cells thus obtained were washed with PBS-Tween. One hundred microliters of 1 μg/milliliter streptavidin-alkaline phosphatase conjugate (trade name, manufactured by Mabtech Ltd.) was added to the cells after washing. Thereafter, the resulting mixture was incubated at room temperature for 90 minutes, to carry out reaction. The resulting product was washed with PBS-Tween and then stained with an alkaline phosphatase conjugate substrate kit (trade name, manufactured by Bio-Rad Laboratories, Inc.). Thereafter, the product after staining was washed with distilled water to terminate the reaction. Then, the plate was dried and spots were counted.
HHDA2402 mice were immunized with an expression plasmid carrying EB virus-derived EBNA 3A gene by a gene gun. After immunized twice, spleen-derived CD8+ T cells were prepared. CD8-negative cells pulsed with the EBNA 3A246-254 peptide were used as target cells, to carry out ELISPOT assay. […]

In experiment [3] the test system is CD8+ cells from HLA-A2402-positive healthy normal volunteers. Put plainly: In vitro induction of human CTLs using CD8− PBMC pulsed with a peptide. Type of experiment: cell-based. The following applies: one stimulation with CD8-negative PBMC pulsed with 10 μM peptide; 10 days after mixed lymphocyte reaction in vitro. The protocol:
The number 1×10^7 of CD8-negative PBMC were pulsed with 10 μM peptide by incubation at room temperature for 1 hour and at 37° C. in 5% CO2 for 1 hour, in 200 μl RPMI1640 medium containing 25 mM Hepes, 10 wt % inactivated human AB-positive serum, 2 mM L-glutamine, 100 U/milliliter penicillin, and 100 μg/milliliter streptomycin. The resulting cells were used as antigen-presenting cells. The number 5×10^5 of CD8+ T cells that were separated were then stimulated by incubation for from 10 to 12 days with 1×10^6 cells of the peptide-pulsed CD8− PBMC. On Days 1, 4 and 7, half amount of the medium was exchanged with fresh one, and human IL-2 (20 IU/milliliter) and IL-7 (50 ng/milliliter) were added thereto. Culturing for induction was conducted in 200 μl RPMI1640 medium (containing 25 mM Hepes, 10 wt % inactivated human AB serum, 2 mM L-glutamine, 100 U/milliliter penicillin, 100 μg/milliliter streptomycin). […]
In staining, sensitized CD8+ T cells were reacted with 20 μg/milliliter tetramer at 37° C. for 30 minutes, and then reacted with a tricolor anti-CD8 monoclonal antibody (trade name, Caltag Laboratories, Burlingame, Calif., USA) on ice for 15 minutes. After washing, the stained cells were analyzed by flow cytometry (trade name: FACSCalibur, manufactured by Becton Dickinson, and Company). […]

For experiment [4], the system named is CD8-positive cells of wild-type C57BL6 mice. The experiment can be described thus: IFN-gamma ELISPOT assay, same experiment in wild-type mice. Type of experiment: cell-based, mouse. The following applies: same experiment as in HHDA2402 mice. The method, then:
as §1
Fresh CD8-positive cells (1×10^5 cells/well) derived from the immunized mice and CD8-negative cells (1×10^6 cells/well) pulsed with various peptides were seeded to each well and regulated so as to have a final volume of 200 μl. Then, the cells were cultured at 37° C. for 22 hours. Thereafter, the cells were washed sufficiently with PBS containing 0.05 wt % Tween™ 20 (referred to as “PBS-Tween”). Two hundreds microliters of 1.25 μg/milliliter biotinylated anti-mouse IFN-gamma mAb (trade name, manufactured by PharMingen Company) was added to the cells after washing, and the cells were then cultured overnight at 4° C. The cells thus obtained were washed with PBS-Tween. One hundred microliters of 1 μg/milliliter streptavidin-alkaline phosphatase conjugate (trade name, manufactured by Mabtech Ltd.) was added to the cells after washing. […] Then, the plate was dried and spots were counted. […]

On to “LYATVIHDI (listed as Homo sapiens) [SAGE715-723]”, for which the “IFN-γ release in ELISPOT with peptide-pulsed T2A24 as target cell” value in experiment [1] (T2A24 pulsed with SAGE715-723, control HER263-71, FIG. 4C) is given as “IFN-γ was released”. The “induction of peptide-specific bulk CTLs, IFN-γ ELISPOT” value in experiment [1] (stimulation twice with CD4+ blast cells with truncated SAGE mRNA, T2A24 pulsed with peptide vs control peptide, FIG. 4A) is “specific bulk CTLs were inducted”. For the same sequence, in experiment [2], the “peptide-specific CTL response in ELISPOT assay (immunogenicity of peptide)” value is given as “positive”. In addition, the “HLA-A2402+ healthy normal humans in whom SAGE715-723 HLA-A24 tetramer-positive T cells were detected” value in experiment [3] is “three out of six”.
Take “LYKPDSNEF (listed as Homo sapiens) [SAGE776-784]”: the “peptide-specific CTL response in ELISPOT assay” value in experiment [4] is recorded as “positive”. In experiment [2], the “peptide-specific CTL response in ELISPOT assay (immunogenicity of peptide)” value was “positive”.
As for “NYKRCFPVI (listed as Homo sapiens) [MAGE-A4143-151]”, the “IFN-γ ELISPOT reaction to T2A24 cells pulsed with peptide” value in experiment [1] (MAGE-A4-specific bulk CTLs amplified with mRNA-introduced autologous LCL, autologous PBMC and IL-2, FIG. 2 panel B) is given as “reaction specific”. In experiment [2], the “peptide-specific CTL response in ELISPOT assay (immunogenicity of peptide)” value was “positive”.
Turning to “RYSIFFDYM (Epstein-Barr virus) [EBNA3A246-254, reference compound]”, the “peptide-specific CTL response in ELISPOT assay (immunogenicity of peptide)” value in experiment [2] is “peptide-specific CTLs were detected”.
With “VYGEPRKLL (listed as Homo sapiens) [MAGE-A4239-247]”, the “peptide-specific CTL response in ELISPOT assay” value in experiment [4] was “positive”. In addition, the “peptide-specific CTL response in ELISPOT assay (immunogenicity of peptide)” value in experiment [2] is reported as “positive”.
